Data reported in US20210032257A1, “(E)-1-(4-(DIMETHYLAMINO)BUT-2-ENOYL)PYRROLIDIN-3-YL 4-((3-ISOPROPYL-5-METHYLPYRAZOLO[1,5-A]PYRIMIDIN-7-YL)AMINO)PIPERIDINE-1-CARBOXYLATE FOR INHIBITING CDK7” (Eli Lilly and Company, priority 2017, published 2021).

Tests used:
[1] = test system: cMyc in HCT116 cells; assay: cMyc cell based Acumen assay; settings: Homo sapiens, HCT-116, 4 hours, read-out: Relative IC50 for cMyc
[2] = test system: phospho-carboxyl terminal domain (Ser2) in HCT116 cells; assay: p-CTD (S2) cell based Acumen assay; settings: Homo sapiens, HCT-116, 4 hours, read-out: relative IC50 for phosphoCTD (S2)
Description: (§1) HCT116 cells (ATCC CCL-247) are cultured in McCoy's 5A Medium Modified media supplemented with 10% FBS, 1% NaPyr and 1% Pen/Strep and plated (prior to becoming 70% confluent) in 96-well flat-bottom plates at a density of 5,000 cells per well in 100 μL volume. The cells are then incubated overnight in a cell culture incubator (5% CO2, 95% Relative Humidity (RH) and 37° C.) and allowed to attach to the plate. The following morning the cells are dosed with compounds. Compound inhibitors are first solubilized at 60 μM in culture medium containing 0.6% DMSO. Subsequently compound serial dilutions (1:3) are prepared over a 6 μM to 0.00 μM range. […]
The following day cells are washed three times with PBS (100 μL/well) and incubated with 50 μL/well of secondary antibody (1:2000 dilution, Goat anti-rabbit IgM ALEXA FLUOR™ 488) in PBS for 1 hour at RT. […] Plates are analyzed on Acumen on FL2 (mean intensity), and FL3 (total intensity). Fluorescence plates are scanned with ACUMEN EXPLORER™ [Laser-scanning fluorescence microplate cytometer manufactured by TTP LABTECH LTD] to measure anti-phospho-carboxyl terminal domain at Serine 2 (pCTD). […]
The IC50 is determined by curve fitting to a four parameter logistic for each output using GENE DATA™.

[3] = target: CDK7/CyclinH/Mat1 (Homo sapiens, UniProt P50613); assay: Biochemical assay for inhibition of CDK7/CyclinH/MAT1 (radiolabel filter binding)
CDK7/CyclinH/Mat1, sequence (P50613 whole entry): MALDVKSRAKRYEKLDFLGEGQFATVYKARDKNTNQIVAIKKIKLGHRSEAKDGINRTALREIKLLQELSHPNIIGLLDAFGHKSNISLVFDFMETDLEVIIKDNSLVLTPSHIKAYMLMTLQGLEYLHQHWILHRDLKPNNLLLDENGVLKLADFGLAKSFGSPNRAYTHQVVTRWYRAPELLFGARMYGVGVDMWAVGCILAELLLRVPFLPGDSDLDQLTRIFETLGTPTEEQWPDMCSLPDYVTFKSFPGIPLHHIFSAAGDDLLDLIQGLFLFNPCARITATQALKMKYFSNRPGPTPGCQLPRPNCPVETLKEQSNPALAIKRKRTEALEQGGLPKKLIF
CDK7/CyclinH/Mat1, sequence (P51946 whole entry partner): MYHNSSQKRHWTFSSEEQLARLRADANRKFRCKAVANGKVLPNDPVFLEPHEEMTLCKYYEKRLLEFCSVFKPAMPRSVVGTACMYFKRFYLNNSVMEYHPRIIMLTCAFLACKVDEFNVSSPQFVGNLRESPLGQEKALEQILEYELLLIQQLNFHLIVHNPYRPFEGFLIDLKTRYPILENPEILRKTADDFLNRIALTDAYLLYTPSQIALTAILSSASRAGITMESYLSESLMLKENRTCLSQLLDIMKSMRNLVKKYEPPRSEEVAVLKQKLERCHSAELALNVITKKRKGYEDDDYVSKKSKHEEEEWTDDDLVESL
CDK7/CyclinH/Mat1, sequence (P51948 whole entry partner): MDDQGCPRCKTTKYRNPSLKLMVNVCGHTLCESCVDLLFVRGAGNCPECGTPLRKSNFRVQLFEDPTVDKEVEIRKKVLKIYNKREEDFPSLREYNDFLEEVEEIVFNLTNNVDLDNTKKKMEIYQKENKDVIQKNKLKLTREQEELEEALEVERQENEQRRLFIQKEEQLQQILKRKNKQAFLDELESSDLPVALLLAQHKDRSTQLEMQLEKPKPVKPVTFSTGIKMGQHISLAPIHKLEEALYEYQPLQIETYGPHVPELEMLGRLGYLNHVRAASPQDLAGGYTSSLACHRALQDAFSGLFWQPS

[4] = target: CDK9/cyclinT1 (Homo sapiens, UniProt P50750); assay: Assay for inhibition of CDK9/CyclinT1 kinase activity (radiolabel filter binding)
CDK9/cyclinT1, sequence (P50750 whole entry, the tested form may be a part): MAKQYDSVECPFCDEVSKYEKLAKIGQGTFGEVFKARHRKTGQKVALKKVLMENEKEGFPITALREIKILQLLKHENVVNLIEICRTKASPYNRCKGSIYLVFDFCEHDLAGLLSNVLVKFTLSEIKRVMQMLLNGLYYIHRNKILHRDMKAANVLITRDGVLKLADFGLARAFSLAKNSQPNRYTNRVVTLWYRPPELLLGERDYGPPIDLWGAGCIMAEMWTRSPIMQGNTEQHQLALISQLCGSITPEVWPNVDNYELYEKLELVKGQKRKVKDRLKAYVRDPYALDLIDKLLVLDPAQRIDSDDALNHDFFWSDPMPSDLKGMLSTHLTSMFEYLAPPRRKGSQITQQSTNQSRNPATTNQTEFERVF
CDK9/cyclinT1, sequence (O60563 whole entry partner, the tested form may be a part): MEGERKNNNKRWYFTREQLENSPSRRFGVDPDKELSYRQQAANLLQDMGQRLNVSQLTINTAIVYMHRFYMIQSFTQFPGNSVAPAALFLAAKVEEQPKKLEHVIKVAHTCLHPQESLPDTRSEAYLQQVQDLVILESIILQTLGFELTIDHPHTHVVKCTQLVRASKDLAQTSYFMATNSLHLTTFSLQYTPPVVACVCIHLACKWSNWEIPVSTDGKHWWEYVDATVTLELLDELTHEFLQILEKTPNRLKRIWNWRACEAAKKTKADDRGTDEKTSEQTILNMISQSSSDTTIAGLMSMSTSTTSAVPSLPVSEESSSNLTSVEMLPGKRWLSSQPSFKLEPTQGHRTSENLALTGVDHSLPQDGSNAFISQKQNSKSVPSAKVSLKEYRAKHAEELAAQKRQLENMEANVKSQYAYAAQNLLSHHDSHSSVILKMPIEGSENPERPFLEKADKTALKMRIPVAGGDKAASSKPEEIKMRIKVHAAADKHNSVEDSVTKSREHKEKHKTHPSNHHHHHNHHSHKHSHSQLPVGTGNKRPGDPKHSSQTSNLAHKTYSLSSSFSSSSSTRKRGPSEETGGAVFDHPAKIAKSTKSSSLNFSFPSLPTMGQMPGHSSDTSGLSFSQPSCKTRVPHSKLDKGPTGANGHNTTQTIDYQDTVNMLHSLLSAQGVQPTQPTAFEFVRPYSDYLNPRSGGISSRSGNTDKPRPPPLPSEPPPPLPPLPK

[5] = test system: phospho-carboxyl terminal domain (Ser5) in HCT116 cells; assay: p-CTD (S5) cell based Acumen assay; settings: Homo sapiens, HCT-116, 4 hours, read-out: Relative IC50 for pCTD Ser5
Description: as §1, with “are” for “are then”, “following morning,” for “following morning”, “are” for “are first”, “a 60” for “a 6”, “to 0.003” for “to 0.00”
The following day cells are washed three times with PBS (100 μL/well) and incubated with 50 μL/well of secondary antibody (1:2000 dilution, Goat anti-rabbit IgM ALEXA FLUOR™ 488) in PBS for 1 hour at room temperature. […] Plates are analyzed on Acumen on FL2 (mean intensity), and FL3 (total intensity). Fluorescence plates are scanned with ACUMEN EXPLORER™ [Laser-scanning fluorescence microplate cytometer manufactured by TTP LABTECH LTD] to measure anti-phospho-carboxyl terminal domain at Serine 5 (pCTD). […] The IC50 is determined by curve fitting to a four parameter logistic for each output using GENE DATA™.

- IC50 [1]: 0.0573 µM
- IC50 [2]: 3.52 µM
- IC50 ([3]; IC50 in CDK7, 3 hours of preincubation of CDK7 enzyme): 0.00506 µM
- IC50 ([3]; IC50 in CDK7, without preincubation): 0.0487 µM
- IC50 [4]: 2.45 µM
- IC50 [5]: 0.198 µM
SMILES: Cc1cc(NC2CCN(C(=O)O[C@@H]3CCN(C(=O)/C=C/CN(C)C)C3)CC2)n2ncc(C(C)C)c2n1 [Example 3, [(3R)-1-[(E)-4-(dimethylamino)but-2-enoyl]pyrrolidin-3-yl] 4-[(3-isopropyl-5-methyl-pyrazolo[1,5-a]pyrimidin-7-yl)amino]piperidine-1-carboxylate]
